In data set [1] the test system is HeLa. The experiment in a line: MTT antiproliferation assay, HeLa. In kind it is cell-based. As to conditions: Homo sapiens, 72 h exposure, read-out: IC50 ± SD, HeLa. The procedure:
(§1) To test the antiproliferative activities of the synthesized compounds (see supplementary Scheme S1 and S2), the target compounds were evaluated in vitro antiproliferation assays against three human cancer cell lines (MCF-7, HeLa and A549) and one human normal lung cell line.
(§2) The in vitro anticancer activities of the prepared compounds against MCF-7, HeLa and A549 cell lines were evaluated as described in the literature[23] with some modifications. Target tumor cells were grown to log phase in DMEM medium supplemented with 10% fetal bovine serum. After reaching a dilution of 1 × 10^5 cells mL^−1 with the medium, 100 μL of the obtained cell suspension was added to each well of 96-well culture plates. Subsequently, incubation was performed at 37 °C in 5% CO2 atmosphere for 48 h before the cytotoxicity assessment. Tested samples at preset concentrations were added to 6 wells with Erlotinib being employed as a positive reference. After 72 h exposure period, 25 μL of PBS containing 2.5 mg mL^−1 of MTT was added to each well. After 4 h, the medium was replaced by 150 μL DMSO to dissolve the purple formazan crystals produced. The absorbance at 570 nm of each well was measured with an ELISA plate reader. The data represented the mean of three independent experiments in triplicate and were expressed as means ± SD. The IC50 value was defined as the concentration at which 50% of the cells could survive.

Data set [2] has as its system MCF-7. The experiment in a line: MTT antiproliferation assay, MCF-7. In kind it is cell-based. As to conditions: Homo sapiens, MCF7, 72 h exposure, read-out: IC50 ± SD, MCF-7. The procedure:
as §1, §2

The target in data set [3] is bFGF. The experiment in a line: Kinase selectivity assay (kit), bFGF. As to conditions: read-out: Inhibition of bFGF IC50. The data set is classed as biochemical. The procedure:
(§3) To validate whether the above anti-proliferative effect was produced by interaction of EGFR protein and the synthesized compounds, the synthesized compounds were evaluated for their abilities to inhibit the activity of four protein kinases relevant to cancer: EGFR, VEGFR2, bFGF, PDGFR. […] Additionally, the activity data inferred that the IC50 values of these compounds shared a similar tendency with their relevant IC50 values of anti-proliferative assay. […] Therefore, we could conclude that the synthesized inhibitors can inhibit the function of EGFR and the anti-proliferative effect was produced partly by interaction of EGFR protein and the compounds.
(§4) The EGFR, VEGFR2, bFGF and PDGFR Kinase Assay Kit were purchased from Bio-Swamp. The experiments were performed according to the manufacturer’s instructions.

In data set [4] the target is PDGFR. The experiment in a line: Kinase selectivity assay (kit), PDGFR. In kind it is biochemical. To be noted: read-out: Inhibition of PDGFR IC50. The method, then:
as §3, §4

The target of data set [5] is T1, EGFR (Homo sapiens, UniProt P00533).
T1 construct: purchased Bio-Swamp
T1 sequence (P00533 25-1210): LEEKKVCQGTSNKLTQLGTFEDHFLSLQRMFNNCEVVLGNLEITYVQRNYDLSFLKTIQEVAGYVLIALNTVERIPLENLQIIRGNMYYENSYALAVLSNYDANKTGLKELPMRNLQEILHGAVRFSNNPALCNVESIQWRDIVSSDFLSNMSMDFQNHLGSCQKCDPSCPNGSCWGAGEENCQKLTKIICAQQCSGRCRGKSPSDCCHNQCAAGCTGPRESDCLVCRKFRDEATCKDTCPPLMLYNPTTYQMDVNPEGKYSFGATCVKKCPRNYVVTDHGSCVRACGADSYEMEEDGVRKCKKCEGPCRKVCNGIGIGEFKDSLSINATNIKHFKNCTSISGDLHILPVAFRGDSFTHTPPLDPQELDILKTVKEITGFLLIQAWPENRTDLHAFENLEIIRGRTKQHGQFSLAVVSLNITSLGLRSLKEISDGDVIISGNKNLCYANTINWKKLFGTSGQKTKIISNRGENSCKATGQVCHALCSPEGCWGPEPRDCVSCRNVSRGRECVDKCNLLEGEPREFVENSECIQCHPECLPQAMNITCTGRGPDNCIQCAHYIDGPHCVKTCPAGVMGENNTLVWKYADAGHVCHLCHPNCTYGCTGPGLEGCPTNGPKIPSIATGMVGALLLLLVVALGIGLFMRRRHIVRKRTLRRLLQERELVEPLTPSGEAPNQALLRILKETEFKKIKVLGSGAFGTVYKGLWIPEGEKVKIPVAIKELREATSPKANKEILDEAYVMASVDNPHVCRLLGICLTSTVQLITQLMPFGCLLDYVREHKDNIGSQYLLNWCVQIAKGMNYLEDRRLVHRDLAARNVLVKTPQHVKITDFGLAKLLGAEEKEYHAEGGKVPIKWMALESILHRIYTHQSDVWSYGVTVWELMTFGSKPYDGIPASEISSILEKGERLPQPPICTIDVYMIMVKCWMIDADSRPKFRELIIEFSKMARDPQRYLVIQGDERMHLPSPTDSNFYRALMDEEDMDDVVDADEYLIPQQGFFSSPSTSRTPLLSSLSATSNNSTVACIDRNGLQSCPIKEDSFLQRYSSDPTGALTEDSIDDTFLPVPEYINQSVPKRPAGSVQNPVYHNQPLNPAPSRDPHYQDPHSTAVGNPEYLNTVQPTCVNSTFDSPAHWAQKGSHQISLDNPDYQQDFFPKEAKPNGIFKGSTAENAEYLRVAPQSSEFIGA
The experiment in a line: Kinase selectivity assay (kit), EGFR. As to conditions: read-out: Inhibition of EGFR IC50. In kind it is biochemical. The procedure:
as §4

Data set [6] relates to Lung cells. The experiment in a line: MTT assay, human normal lung cell line. To be noted: read-out: IC50 ± SD, Lung cells. In kind it is cell-based. The procedure:
as §1, §2

In data set [7] the test system is A549. The experiment in a line: MTT antiproliferation assay, A549. In kind it is cell-based. To be noted: Homo sapiens, 72 h exposure, read-out: IC50 ± SD, A549. The procedure:
as §1, §2

The subject of data set [8] is A549 cells. The experiment in a line: Tumor volume in nude mice inoculated with A549 cells. In kind it is in vivo. To be noted: for Test/Control (tumor volume): 40 mg/kg/2 days. The method, then: To further evaluate the antitumor effect of compound 3p in vivo, we performed an animal study. Mice were inoculated subcutaneously with A549 cells (5.0 × 10^6) on their shoulders. […]. […] […].
Male BALB/c nude mice, 35–40 days old and weighing 18–22 g, were supplied by Shanghai Laboratory Animal Limited Company. The mice were raised in air-conditioned rooms under controlled lighting (12 h lighting/day) and were fed with standard laboratory food and water ad libitum. Before injection into the mice, the lung cancer cells (A549) were harvested by trypsinization and washed three times with cold serum-free medium and then injected in a total volume of 0.1 mL using a 1-mL latex-free syringe (BD) within 30 min of harvest. Mice were inoculated subcutaneously with A549 cells (5.0 × 10^6) on their shoulders. When the tumor had increased to 100 mm^3 , the mice were equally randomized into 4 groups (with 6 mice/group): saline tumor control group; compound 3p 20 mg/kg/2 days group; compound 3p 40 mg/kg/2 days group; […]. The control group received 0.9% normal saline. Tumor size was measured once every 2 days in two per-pendicular dimensions with Vernier calipers and converted to tumor volume (TV) using the formula: (ab^2)/2, where a and b refer to the longer and shorter dimensions, respectively. The body weight of the animals was measured twice a week at the same time as the tumor dimension measurement and the mortality was monitored daily. After the treatments, all mice were killed and weighed simultaneously, and then tumor was segregated and weighed.

Data set [9] concerns Erythrocytes. The experiment in a line: Hemolysis test. In kind it is cell-based. To be noted: human erythrocytes, 3 h incubation. The procedure:
Hemolytic activity was assayed using fresh capillary human blood. Erythrocytes were collected by centrifuging the blood three times in chilled phosphate buffered saline (PBS at 4 °C) at 1000 × g for 10 min. The final pellet was resuspended in PBS to give a 2% w/v solution. Using a microtitre plate, 100 μL of the erythrocyte solution was added to dextran, PLL, stearyl-PLL or stearyl-PLL+LDL (1–1000/μg/mL) in a volume of […]. Samples were then incubated for 3 h and the microtitre plate was centrifuged then at 1000 × g for 10 min and the supernatants (100 μL) transferred into a new microtitre plate. Hemoglobin release was determined spectrophotometrically using a microtitre plate reader (absorbance at 550 nm). Results were expressed as the amount of released hemoglobin induced by the compounds as a percentage of the total. Hemolysis test was tested according to the guide of biological evaluation of medical device (SFDA, China).

Data set [10] has as its target T2, VEGFR2 (Homo sapiens, UniProt P35968).
T2 construct: purchased Bio-Swamp
The experiment in a line: Kinase selectivity assay (kit), VEGFR2. The data set is classed as biochemical. As to conditions: read-out: Inhibition of VEGFR2 IC50. The method, then:
as §3, §4

A short description of data set [11]: in vitro. In kind it is cell-based. As to conditions: mouse. The method, then:
The cytotoxic activity in vitro was measured against mouse fibroblast NIH-3T3 cells using the MTT assay. Cells were cultured in a 96-well plate at a density of 5 × 10^5 cells and different concentrations of compounds were respectively added to each well. The incubation was permitted at 37 °C, 5% CO2 atmosphere for 24 h before the cytotoxicity assessments. 20 μL MTT reagent (4 mg/mL) was added per well 4 h before the end of the incubation. Four hours later, the plate was centrifuged at 1200 rcf for 5 min and the supernatants were removed, each well was added with 200 μL DMSO. The absorbance was measured at a wavelength of 490 nm (OD 490 nm) on an ELISA microplate reader. Three replicate wells were used for each concentration and each assay was measured three times, after which the average of IC50 was calculated.

The subject of data set [12] is MCF-7, HeLa and A549 cell lines. The experiment in a line: Anticancer activities discussed in text (cell line not specified). In kind it is cell-based, human. As to conditions: comparison within series and with positive control. The method, then:
According to the data presented in Table 1, it could be concluded that the activity of the tested compounds may be correlated to the variation and modifications of structure.
as §2

Data set [13] is described as follows: Acute oral toxicity, bodyweights. To be noted: mice; for Bodyweights 0 day ± SD: day 0; for Bodyweights 7 days ± SD: day 7. The data set is classed as in vivo. The procedure:
Before the acute toxicity experiment, mice were stopped being served food but water was kept for 3 h. The test substances were dissolved in maize germ oil[24]. The preliminary experiment was performed as follows: Four dose levels, 100, 500, 2000, and 5000 mg/kg body weight and three mice for each level were used. We observed the death and evident toxicity in 7 days to determine the general concentration range. Then the administration doses were graded with geometric progression for ease of the calculation of LD50. Mice were randomly divided into groups (10 mice/group). […] The control groups received maize germ oil only. After the administration, food was withheld for 2 h.

The structures appear in SMILES notation.

T2 sequence (P35968 20-1356, species assumed): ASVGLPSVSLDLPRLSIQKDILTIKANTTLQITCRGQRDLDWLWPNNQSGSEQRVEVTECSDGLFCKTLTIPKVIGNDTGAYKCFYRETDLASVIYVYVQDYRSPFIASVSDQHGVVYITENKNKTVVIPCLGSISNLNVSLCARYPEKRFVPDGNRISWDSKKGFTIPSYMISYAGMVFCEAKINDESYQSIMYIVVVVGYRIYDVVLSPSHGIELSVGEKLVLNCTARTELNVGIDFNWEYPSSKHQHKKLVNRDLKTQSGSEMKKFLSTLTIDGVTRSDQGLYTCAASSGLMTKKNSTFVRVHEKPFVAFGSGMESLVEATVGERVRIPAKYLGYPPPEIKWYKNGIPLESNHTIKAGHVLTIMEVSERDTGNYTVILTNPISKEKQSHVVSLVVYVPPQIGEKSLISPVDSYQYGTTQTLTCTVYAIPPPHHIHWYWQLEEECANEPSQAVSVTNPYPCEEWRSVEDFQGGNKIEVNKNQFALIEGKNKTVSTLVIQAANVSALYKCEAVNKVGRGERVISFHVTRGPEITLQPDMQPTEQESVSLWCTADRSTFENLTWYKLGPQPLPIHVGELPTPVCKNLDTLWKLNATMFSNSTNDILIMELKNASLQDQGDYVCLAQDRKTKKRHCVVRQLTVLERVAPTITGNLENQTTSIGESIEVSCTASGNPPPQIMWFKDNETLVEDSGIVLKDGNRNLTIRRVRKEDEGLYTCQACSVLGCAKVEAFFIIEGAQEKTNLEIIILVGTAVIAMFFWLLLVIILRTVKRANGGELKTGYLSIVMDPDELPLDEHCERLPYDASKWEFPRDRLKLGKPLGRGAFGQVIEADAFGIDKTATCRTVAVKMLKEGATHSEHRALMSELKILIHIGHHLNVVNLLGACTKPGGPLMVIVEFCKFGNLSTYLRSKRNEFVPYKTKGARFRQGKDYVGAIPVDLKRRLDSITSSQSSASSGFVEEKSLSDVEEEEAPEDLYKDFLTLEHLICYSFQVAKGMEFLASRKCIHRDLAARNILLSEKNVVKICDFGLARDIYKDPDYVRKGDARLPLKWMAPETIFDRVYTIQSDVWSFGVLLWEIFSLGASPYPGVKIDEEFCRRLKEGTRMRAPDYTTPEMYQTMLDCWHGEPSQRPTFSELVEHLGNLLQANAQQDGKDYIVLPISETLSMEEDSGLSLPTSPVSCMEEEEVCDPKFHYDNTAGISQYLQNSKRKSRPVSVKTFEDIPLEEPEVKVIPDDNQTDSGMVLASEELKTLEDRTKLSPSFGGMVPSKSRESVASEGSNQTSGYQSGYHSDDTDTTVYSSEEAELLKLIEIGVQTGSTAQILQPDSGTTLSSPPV

On to `COc1cc(OC)nc(NC(=O)CN2CCN(c3ccc(Cl)c(Cl)c3)CC2)n1` [3p, 2-(4-(3,4-dichlorophenyl)piperazin-1-yl)-N-(4,6-dimethoxypyrimidin-2-yl)acetamide], for which the IC50 was 0.08 ± 0.0002 µM in data set [1]; 0.22 ± 0.001 µM in data set [2]; 27.1 ± 3.17 µM in [3]; 17.3 ± 0.95 µM in data set [4]; 0.02 ± 0.003 µM in [5]; 189 ± 3.82 µM in data set [6]. For the same molecule, the values for the IC50 in data set [7] and in data set [10] were 0.05 ± 0.0003 µM and 2.15 ± 0.06 µM, respectively. Moreover, in data set [8] (40 mg/kg, day 14), the Weight of tumor result is “significantly reduced”. For the same molecule, the “Test/Control (tumor volume)” value is given as 42.79% in data set [8] (day 4); 49.61% in [8] (day 6); 50.79% in data set [8] (day 8); 60.00% in data set [8] (day 10); 61.22% in [8] (day 12). Further, in [8] (14-day treatment, nude mice), the “Effect on mice body weight” value is reported as “did not observe significant growth inhibition of mice body weight”. In addition, the “Mortality during the treatment” value in data set [8] (mouse, in vivo) was “none of the mice died”. Besides, in data set [9], the “Hemolysis LC30 (lytic concentration 30%)” value was above 10000 µg/mL. The IC50 at 24 h in [11] amounted to 239 ± 4.03 µM. For the same molecule, in data set [12], the “Anticancer / antitumor activity (in words)” value was “most potent anticancer activities”. For the same molecule, in [13], the “Bodyweights 0 day ± SD” value is listed as 22.12 ± 1.13 g. In addition, in [13], the “Bodyweights 7 days ± SD” value is given as 27.33 ± 1.08 g.
Turning to `COc1cc(OC)nc(NC(=O)CN2CCN(c3ccccc3OC)CC2)n1` [3e, N-(4,6-Dimethoxypyrimidin-2-yl)-2-(4-(2-methoxyphenyl)piperazin-1-yl)acetamide], the IC50 in data set [1] came out at 1.55 ± 0.006 µM; in data set [2], 2.57 ± 0.02 µM; in data set [3] it was 11.5 ± 0.89 µM; in [4], 10 ± 1.17 µM; in data set [5], 1.01 ± 0.004 µM; in data set [6], 189.3 ± 1.78 µM. Moreover, the half-maximal inhibitory concentration (IC50) came to 1.97 ± 0.001 µM in data set [7] and 5.33 ± 0.05 µM in data set [10]. The “Hemolysis LC30 (lytic concentration 30%)” value in data set [9] is above 10000 µg/mL. The midpoint of inhibition in data set [11], the IC50 at 24 h, lay at 173 ± 5.31 µM. The “Anticancer / antitumor activity (in words)” value in data set [12] was “better anticancer activities compared to the positive control”. Besides, the “Bodyweights 0 day ± SD” value in [13] is 21.11 ± 1.34 g. The “Bodyweights 7 days ± SD” value in data set [13] amounted to 25.34 ± 1.15 g.

Source of the values: PMC4563558, “Discovery of a series of novel phenylpiperazine derivatives as EGFR TK inhibitors” (Scientific Reports, 2015).
